Experimental data published in article PMC5007552, “The hVps34‐SGK3 pathway alleviates sustained PI3K/Akt inhibition by stimulating mTORC1 and tumour growth” (The EMBO Journal, 2016).
Several values for one entry are separate records, joined by “and”; a condition that tells them apart may be missing. Equal values may be shown once.

System: ZR-75-1 cells
Assay: NanoString human kinome mRNA quantification
Assay type: cell-based
From the text: Human mRNAs were hybridised to NanoString human kinome and control code sets, then subjected to quantification using NanoString software. […] To permit data compaction, and simple kinome‐wide comparisons, the fold changes are log2 transformed. […] Cell pellets were resuspended at a concentration of ~6,500 cells/μl in RLT buffer (Qiagen). […] For total copy numbers, triplicate normalised count values were averaged, and to calculate fold induction, means were divided by triplicate mean values from matched DMSO controls. P‐values were calculated using unpaired t‐test (GraphPad Prism software) by employing treated and control count data for each kinase mRNA.

Compound: NC1(c2ccc(-c3nc4ccn5c(=O)[nH]nc5c4cc3-c3ccccc3)cc2)CCC1 [MK-2206]
- BRD4 Normalised counts (BRD4 mRNA, single replicates): 2584.75 and 2591.35 and 2590.29
- BRDT Average normalised counts (BRDT mRNA, average of 3 replicates): 1
- BRDT Normalised counts (BRDT mRNA, single replicates): 1
- BRSK1 Average normalised counts (BRSK1 mRNA, average of 3 replicates): 145.583
- BRSK1 Normalised counts (BRSK1 mRNA, single replicates): 127.82 and 151.05 and 157.88
- BRSK2 Average normalised counts (BRSK2 mRNA, average of 3 replicates): 4.607
- BRSK2 Normalised counts (BRSK2 mRNA, single replicates): 2.39 and 5.97 and 5.46
- BTK Average normalised counts (BTK mRNA, average of 3 replicates): 1
- BTK Normalised counts (BTK mRNA, single replicates): 1
- BUB1B Average normalised counts (BUB1B mRNA, average of 3 replicates): 1729.87
- BUB1B Normalised counts (BUB1B mRNA, single replicates): 1717.6 and 1711.31 and 1760.7
- BUB1 Average normalised counts (BUB1 mRNA, average of 3 replicates): 648.95
- BUB1 Normalised counts (BUB1 mRNA, single replicates): 644.12 and 665.35 and 637.38
- C9orf96 Average normalised counts (C9orf96 mRNA, average of 3 replicates): 2.773
- C9orf96 Normalised counts (C9orf96 mRNA, single replicates): 1 and 4.24 and 3.08
- C21orf7 Average normalised counts (C21orf7 mRNA, average of 3 replicates): 1
- C21orf7 Normalised counts (C21orf7 mRNA, single replicates): 1
- CAMK1D average normalised counts (CAMK1D mRNA): 339.763
- CAMK1D normalised counts (replicates) (CAMK1D mRNA): 364.15 and 317.85 and 337.29
- CAMK1G average normalised counts (CAMK1G mRNA): 1
- CAMK1G normalised counts (replicates) (CAMK1G mRNA): 1
- CAMK1 average normalised counts (CAMK1 mRNA): 4.053
- CAMK1 normalised counts (replicates) (CAMK1 mRNA): 4.2 and 2.5 and 5.46
- CAMK2A average normalised counts (CAMK2A mRNA): 1
- CAMK2A normalised counts (replicates) (CAMK2A mRNA): 1
- CAMK2B average normalised counts (CAMK2B mRNA): 228.397
- CAMK2B normalised counts (replicates) (CAMK2B mRNA): 211.86
- CAMK2D average normalised counts (CAMK2D mRNA): 829.067
- CAMK2D normalised counts (replicates) (CAMK2D mRNA): 815.91 and 824.33 and 846.96
- CAMK2G average normalised counts (CAMK2G mRNA): 2774.38
- CAMK2G normalised counts (replicates) (CAMK2G mRNA): 2695.65 and 2845.89 and 2781.61
- CAMK4 average normalised counts (CAMK4 mRNA): 3.433
- CAMK4 normalised counts (replicates) (CAMK4 mRNA): 4.2 and 5.1 and 1
- CAMKK1 average normalised counts (CAMKK1 mRNA): 313.75
- CAMKK1 normalised counts (replicates) (CAMKK1 mRNA): 326.89 and 314.38 and 299.98
- CAMKK2 average normalised counts (CAMKK2 mRNA): 584.02
- CAMKK2 normalised counts (replicates) (CAMKK2 mRNA): 568.67 and 607.14 and 576.25
- CAMKV average normalised counts (CAMKV mRNA): 1.5
- CAMKV normalised counts (replicates) (CAMKV mRNA): 1 (2×) and 2.5
- CASK average normalised counts (CASK mRNA): 727.217
- CASK normalised counts (replicates) (CASK mRNA): 714.11 and 680.12 and 787.42
- CCL2 average normalised counts (CCL2 mRNA): 6.427
- CCL2 normalised counts (replicates) (CCL2 mRNA): 9.66 and 3.37 and 6.25
- CDC7 average normalised counts (CDC7 mRNA): 336.743
- CDC7 normalised counts (replicates) (CDC7 mRNA): 335.98 and 336.96 and 337.29
- CDC42BPA average normalised counts (CDC42BPA mRNA): 675.63
- CDC42BPA normalised counts (replicates) (CDC42BPA mRNA): 678.66 and 677.51 and 670.72
- CDC42BPB average normalised counts (CDC42BPB mRNA): 1143.02
- CDC42BPB normalised counts (replicates) (CDC42BPB mRNA): 1097.69 and 1178.77 and 1152.6
- CDC42BPG average normalised counts (CDC42BPG mRNA): 104.73
- CDC42BPG normalised counts (replicates) (CDC42BPG mRNA): 110.55 and 108.48 and 95.16
- CDK1 average normalised counts (CDK1 mRNA): 3517.89
- CDK1 normalised counts (replicates) (CDK1 mRNA): 3504.63 and 3450.53 and 3598.5
- CDK2 average normalised counts (CDK2 mRNA): 369.187
- CDK2 normalised counts (replicates) (CDK2 mRNA): 366.88 and 370.84 and 369.84
- CDK3 average normalised counts (CDK3 mRNA): 56.79
- CDK3 normalised counts (replicates) (CDK3 mRNA): 49.65 and 58.1 and 62.62
- CDK4 average normalised counts (CDK4 mRNA): 2610.07
- CDK4 normalised counts (replicates) (CDK4 mRNA): 2590.21 and 2633.05 and 2606.96
- CDK5 average normalised counts (CDK5 mRNA): 1339.04
- CDK5 normalised counts (replicates) (CDK5 mRNA): 1332.2 and 1264.78 and 1420.13
- CDK6 average normalised counts (CDK6 mRNA): 35.6167
- CDK6 normalised counts (replicates) (CDK6 mRNA): 34.2 and 34.64 and 38.01
- CDK7 average normalised counts (CDK7 mRNA): 605.207
- CDK7 normalised counts (replicates) (CDK7 mRNA): 585.94 and 619.3 and 610.38
- CDK8 average normalised counts (CDK8 mRNA): 908.99
- CDK8 normalised counts (replicates) (CDK8 mRNA): 898.63 and 942.48 and 885.86
- CDK9 average normalised counts (CDK9 mRNA): 879.65
- CDK9 normalised counts (replicates) (CDK9 mRNA): 853.18 and 899.91 and 885.86
- CDK10 average normalised counts (CDK10 mRNA): 437.29
- CDK10 normalised counts (replicates) (CDK10 mRNA): 440.51 and 431.66 and 439.7
- CDK11A average normalised counts (CDK11A mRNA): 420.55
- CDK11A normalised counts (replicates) (CDK11A mRNA): 435.96 and 389.96 and 435.73
- CDK12 average normalised counts (CDK12 mRNA): 928.887
- CDK12 normalised counts (replicates) (CDK12 mRNA): 909.53 and 946.82 and 930.31
- CDK13 average normalised counts (CDK13 mRNA): 1530.42
- CDK13 normalised counts (replicates) (CDK13 mRNA): 1564.9 and 1505.42 and 1520.95
- CDK14 average normalised counts (CDK14 mRNA): 158.347
- CDK14 normalised counts (replicates) (CDK14 mRNA): 151.46 and 173.64 and 149.94
- CDK15 average normalised counts (CDK15 mRNA): 1
- CDK15 normalised counts (replicates) (CDK15 mRNA): 1
- CDK16 average normalised counts (CDK16 mRNA): 3907.09
- CDK16 normalised counts (replicates) (CDK16 mRNA): 3890.94 and 3866.66 and 3963.68
- CDK17 average normalised counts (CDK17 mRNA): 1410.09
- CDK17 normalised counts (replicates) (CDK17 mRNA): 1395.83 and 1406.38 and 1428.07
- CDK18 average normalised counts (CDK18 mRNA): 99.86
